Test systems include BT-549 breast; HCT-116 colon; HOP-62 NSCLC; LOX IMVI melanoma; MALME-3M melanoma; NCI-H460 lung; NCI-H522 lung; OVCAR-3 ovarian; SF-268 CNS; SK-MEL-5 melanoma.
Common to all, as to test: DTP human tumour cell line panel, 48 h

The source of these data is PubChem BioAssay (NCI).

The structures appear in SMILES notation. Where “and” joins values, the source holds several entries; their conditions need not be identical. Equal values may be shown once.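 Results reflect a 48-hour exposure of cells in 96-well plates to compound at five concentrations. GI50 = concentration required for 50% inhibition of growth. TGI marks complete inhibition of growth.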 Bounds are passed on as bounds.

With `C[C@H](c1ccccc1)N(CCC(=O)O)C(=O)CCN(C(=O)CCN(C(=O)CCN[C@H](C)c1ccccc1)[C@H](C)c1ccccc1)[C@H](C)c1ccccc1`, the GI50 in the assay with BT-549 breast, with HCT-116 colon, in the assay on HOP-62 NSCLC, in the assay with LOX IMVI melanoma, in the assay on MALME-3M melanoma and in the assay on NCI-H460 lung was over 100 µM throughout. Besides, the GI50 with NCI-H522 lung, in the assay on OVCAR-3 ovarian, in the assay with SF-268 CNS and in the assay with SK-MEL-5 melanoma was over 100 µM each time. In addition, the concentration for total growth inhibition (TGI) in the assay with BT-549 breast, with HCT-116 colon, in the assay with HOP-62 NSCLC, in the assay on LOX IMVI melanoma, in the assay with MALME-3M melanoma and in the assay on NCI-H460 lung was over 100 µM throughout. The concentration for total growth inhibition (TGI) in the assay with NCI-H522 lung, in the assay on OVCAR-3 ovarian, in the assay with SF-268 CNS and in the assay on SK-MEL-5 melanoma was over 100 µM throughout.
Regarding `CC/C(=N/N=C(N)N)c1ccc(NC(=O)Nc2ccc(/C(CC)=N/N=C(N)N)cc2)cc1`, the GI50 (commonly the concentration giving 50% growth inhibition) was 3.83 µM with BT-549 breast; 5.72 µM with HCT-116 colon; 10.7 µM in the assay with HOP-62 NSCLC; 9.41 µM in the assay on LOX IMVI melanoma; 8.24 µM in the assay with MALME-3M melanoma; 4.1 µM in the assay with NCI-H460 lung. The GI50 is 1.74 µM in the assay on NCI-H522 lung, 6.19 µM in the assay with OVCAR-3 ovarian, 12.8 µM in the assay with SF-268 CNS and 2.07 µM in the assay on SK-MEL-5 melanoma. Moreover, the TGI – broadly, the concentration giving total growth inhibition – with BT-549 breast is 21.1 µM; in the assay on HCT-116 colon, 25.5 µM; with HOP-62 NSCLC it was 42.6 µM; with LOX IMVI melanoma it was 35 µM; in the assay with MALME-3M melanoma, 54.5 µM; in the assay on NCI-H460 lung, over 100 µM. Further, the TGI in the assay on NCI-H522 lung is 7.03 µM; in the assay with OVCAR-3 ovarian, 32 µM; in the assay on SF-268 CNS it was over 100 µM; in the assay with SK-MEL-5 melanoma, over 100 µM.
For `COc1ccc(-c2nc3sccn3c2-c2ccnc(NCCCNS(=O)(=O)c3ccc(F)cc3)n2)cc1`, the GI50 in the assay on BT-549 breast is 2.19 µM; in the assay with HCT-116 colon it was 3.19 µM; in the assay on HOP-62 NSCLC, 4.15 µM; in the assay with LOX IMVI melanoma it was 1.91 µM; in the assay with MALME-3M melanoma, 2.6 µM; in the assay on NCI-H460 lung it was 2.78 µM. Moreover, the GI50 in the assay on NCI-H522 lung is 1.41 µM; in the assay with OVCAR-3 ovarian, 2.96 µM; with SF-268 CNS, 3.05 µM; with SK-MEL-5 melanoma, 1.06 µM. The concentration for total growth inhibition (TGI) in the assay on BT-549 breast turned out to be 8.27 µM; in the assay on HCT-116 colon it was 24.4 µM; in the assay with HOP-62 NSCLC it was 23.7 µM; in the assay on LOX IMVI melanoma, 5.82 µM; in the assay on MALME-3M melanoma it was 7.86 µM; with NCI-H460 lung, 37.6 µM. For the same compound, the TGI in the assay on NCI-H522 lung was found to be 6.34 µM; in the assay with OVCAR-3 ovarian, 48.7 µM; with SF-268 CNS, 48.3 µM; with SK-MEL-5 melanoma, 2.28 µM.
As for `OCc1ccc(N(Cc2ccc(F)cc2)CC2CCC2)cc1Cl`, the GI50 was 17.5 µM with BT-549 breast; 1.85 µM with HCT-116 colon; 10 µM in the assay with HOP-62 NSCLC; 14.7 µM in the assay on LOX IMVI melanoma; 16.3 µM in the assay on MALME-3M melanoma; 3.17 µM with NCI-H460 lung. Moreover, the GI50 in the assay on NCI-H522 lung was 12.7 µM; with OVCAR-3 ovarian it was 5.28 µM; in the assay with SF-268 CNS it was 17.1 µM; in the assay on SK-MEL-5 melanoma, 13.3 µM. The total growth inhibition concentration (TGI) in the assay on BT-549 breast came to 32.3 µM; in the assay with HCT-116 colon, 11.5 µM; with HOP-62 NSCLC it was 22.7 µM; in the assay on LOX IMVI melanoma, 29.2 µM; in the assay on MALME-3M melanoma, 31.8 µM; in the assay with NCI-H460 lung, 15 µM. In addition, the total growth inhibition concentration (TGI) with NCI-H522 lung was 27.1 µM; in the assay on OVCAR-3 ovarian, 17.5 µM; with SF-268 CNS, 32.1 µM; in the assay on SK-MEL-5 melanoma, 26.2 µM.
On to `CCc1ccc([O-])c(C=NCCCN(C)CCCN=Cc2cc(C)ccc2[O-])c1.[Co+3].[N-]=[N+]=[N-]`, for which the GI50 is 50 µg/mL in the assay with BT-549 breast; 50 µg/mL and 56.2 µg/mL with HCT-116 colon; 10.5 µg/mL and 12 µg/mL in the assay with HOP-62 NSCLC; 41.3 µg/mL in the assay on LOX IMVI melanoma; 50 µg/mL and 82.6 µg/mL in the assay on MALME-3M melanoma; 50 µg/mL and > 150 µg/mL in the assay on NCI-H460 lung. The GI50 was 50 µg/mL and > 150 µg/mL with NCI-H522 lung; 50 µg/mL and 71.1 µg/mL with OVCAR-3 ovarian; 21.9 µg/mL and 53.3 µg/mL with SF-268 CNS; 50 µg/mL and 139 µg/mL in the assay on SK-MEL-5 melanoma. Besides, the TGI in the assay on BT-549 breast is 50 µg/mL; in the assay with HCT-116 colon it was 50 µg/mL and > 150 µg/mL; with HOP-62 NSCLC it was 50 µg/mL and 34.5 µg/mL; with LOX IMVI melanoma it was over 150 µg/mL; with MALME-3M melanoma it was 50 µg/mL and > 150 µg/mL; in the assay with NCI-H460 lung, 50 µg/mL and > 150 µg/mL. In addition, the total growth inhibition concentration (TGI) in the assay on NCI-H522 lung was 50 µg/mL and > 150 µg/mL; in the assay with OVCAR-3 ovarian it was 50 µg/mL and > 150 µg/mL; in the assay on SF-268 CNS, 50 µg/mL and > 150 µg/mL; with SK-MEL-5 melanoma, 50 µg/mL and > 150 µg/mL.
Turning to `O=C1NC(=N[C@H](CO)c2ccccc2)S/C1=C\c1ccc2ncccc2c1`, the GI50 in the assay with BT-549 breast was 3.95 µM; in the assay with HCT-116 colon, 1.68 µM; with HOP-62 NSCLC it was 6.73 µM; in the assay with LOX IMVI melanoma it was 2.41 µM; in the assay with MALME-3M melanoma, 6.21 µM; in the assay on NCI-H460 lung, 3.71 µM. Also, the GI50 in the assay on NCI-H522 lung is 1.54 µM; in the assay with OVCAR-3 ovarian it was 4.13 µM; in the assay on SF-268 CNS it was 3.82 µM; in the assay with SK-MEL-5 melanoma, 4.89 µM. Moreover, the TGI was over 16 µM in the assay on BT-549 breast; over 21 µM in the assay on HCT-116 colon; over 25 µM in the assay with HOP-62 NSCLC; 22 µM in the assay with LOX IMVI melanoma; 22.4 µM in the assay on MALME-3M melanoma; 24.6 µM in the assay on NCI-H460 lung. Further, the TGI with NCI-H522 lung was 6.31 µM; in the assay with OVCAR-3 ovarian, 13.7 µM; with SF-268 CNS it was over 25 µM; in the assay with SK-MEL-5 melanoma, 10.6 µM.
As for `c1cc2c(c(NC3=NCCN3)c1)CCCC2`, the TGI in the assay on BT-549 breast, with HCT-116 colon, with HOP-62 NSCLC, with LOX IMVI melanoma, with MALME-3M melanoma and with NCI-H460 lung was over 100 µM throughout. Also, the TGI in the assay with NCI-H522 lung, with OVCAR-3 ovarian, with SF-268 CNS and with SK-MEL-5 melanoma was over 100 µM throughout.
For `CNCCNc1nc2ccccc2c2c(=O)c3cccc(C)c3sc12`, the GI50 with BT-549 breast was 5.34 µM; in the assay on HCT-116 colon, 0.818 µM; in the assay with HOP-62 NSCLC, 1.36 µM; with LOX IMVI melanoma, 0.791 µM; in the assay with MALME-3M melanoma, 5.16 µM; in the assay on NCI-H460 lung it was 0.917 µM. Moreover, the GI50 is 1.3 µM in the assay on NCI-H522 lung, 1.47 µM with OVCAR-3 ovarian, 3.53 µM with SF-268 CNS and 6.14 µM with SK-MEL-5 melanoma. In addition, the TGI came to 12.1 µM in the assay with BT-549 breast; 1.57 µM with HCT-116 colon; 8.81 µM with HOP-62 NSCLC; 1.49 µM in the assay on LOX IMVI melanoma; 11.7 µM with MALME-3M melanoma; 2.05 µM in the assay with NCI-H460 lung. The total growth inhibition concentration (TGI) in the assay with NCI-H522 lung is 4.42 µM; with OVCAR-3 ovarian, 5.27 µM; with SF-268 CNS, 11.4 µM; in the assay on SK-MEL-5 melanoma, 12.6 µM.
